Reference: the Deep4Chem optical property database

Assay: solvent given as SMILES

SMILES: CCC1(CC)c2ccccc2-c2c1c1c(c3c2C(CC)(CC)c2cc(B(c4c(C)cc(C)cc4C)c4c(C)cc(C)cc4C)ccc2-3)C(CC)(CC)c2cc(B(c3c(C)cc(C)cc3C)c3c(C)cc(C)cc3C)ccc2-1
- emission maximum (in C1CCOC1): 387 nm
- emission maximum (in CC#N): 398 nm
- emission maximum (in CC(C)=O): 394 nm
- emission maximum (in CCCCCC): 378 nm
- emission maximum (in ClC(Cl)Cl): 387 nm

SMILES: CC1(C)C(/C=C/c2cc3ccc(O)cc3oc2=O)=[N+](CCCS(=O)(=O)[O-])c2ccc(S(=O)(=O)O)cc21
- emission maximum (in CCO): 648 nm
- emission maximum (in CS(C)=O): 604 nm
- emission maximum (in O): 636 nm

SMILES: O=C(c1ccncc1)c1ccc(-n2c3ccccc3c3cc(-n4c5ccccc5c5ccccc54)ccc32)cc1
- emission maximum (in Cc1ccccc1): 480 nm
- emission maximum (in c1cc(-c2cccc(-n3c4ccccc4c4ccccc43)c2)cc(-n2c3ccccc3c3ccccc32)c1): 475.23 nm

SMILES: F[B-]1(F)n2c(Nc3cccc4cccnc34)ccc2C(c2ccccc2)=C2C=CC(Cl)=[N+]21
- emission maximum (in C1CCCCC1): 580 nm
- emission maximum (in CC#N): 580 nm
- emission maximum (in Cc1ccccc1): 586 nm
- emission maximum (in ClC(Cl)Cl): 583 nm

SMILES: CC(C)(C)c1ccc2c(c1)c1cc(C(C)(C)C)ccc1n2-c1ccc(-c2cccs2)s1
- emission maximum (in ClCCl): 417 nm

SMILES: Clc1nc(Cl)nc(Nc2ccc3c4cccc5cccc(c6cccc2c63)c54)n1
- emission maximum (in C1COCCO1): 472 nm
- emission maximum (in CC#N): 475 nm
- emission maximum (in CCCCOCCCC): 475 nm
- emission maximum (in CCOC(C)=O): 469 nm

SMILES: CC(C)(C)OC(=O)c1c(C=Cc2ccccc2)oc(NC2CCCCC2)c1C(=O)OC(C)(C)C
- emission maximum (in CC#N): 462 nm

SMILES: CN(C)c1ccc(-c2cc3ccc([N+](=O)[O-])cc3c(=O)o2)cc1
- emission maximum (in CC(C)=O): 682 nm
- emission maximum (in CCCCO): 559 nm
- emission maximum (in CCOC(C)=O): 621 nm
- emission maximum (in CN(C)C=O): 605 nm
- emission maximum (in CO): 605 nm
- emission maximum (in ClC(Cl)Cl): 652 nm

SMILES: C#Cc1ccc2cc(/C=C/C(=O)OCC)c(=O)oc2c1
- emission maximum (in CCO): 412 nm

SMILES: CCOC(=O)CSc1nc(C)c(CC)c(C#N)c1C#N
- emission maximum (in c1ccccc1): 407 nm

SMILES: Clc1ccc(/C=C(\c2ccccc2)c2nc3ccccc3s2)cc1
- emission maximum (in C1CCCCC1): 420 nm
- emission maximum (in CO): 430 nm

SMILES: CCc1c(C)c2n(c1C)[B-](F)(F)[N+]1=C(NCc3ccc(OC)cc3)C(SC#N)=CC1=C2C
- emission maximum (in CC#N): 582 nm
- emission maximum (in CCCCCC): 589 nm
- emission maximum (in CCOC(C)=O): 586 nm
- emission maximum (in CO): 583 nm
- emission maximum (in ClCCl): 586 nm

SMILES: CCOC(=O)C(Cc1ccc(O[Si]2(Oc3ccc(CC(NC(C)=O)C(=O)OCC)cc3)n3c4c5ccccc5c3/N=C3N=C(/N=c5/c6ccccc6/c(n52)=N/C2=NC(=N\4)/c4ccccc42)c2ccccc2\3)cc1)NC(C)=O (centres undefined)
- emission maximum (in CN(C)C=O): 686 nm

SMILES: c1cc(-c2ccc3c(c2)CCCO3)ccc1-c1ccc2c(c1)CCCO2
- emission maximum (in C1CCCCC1): 351 nm

SMILES: Cc1cc2cc(N3c4ccccc4Oc4ccccc43)ccc2c(=O)o1
- emission maximum (in Cc1ccccc1): 540 nm

SMILES: C(=C1c2ccccc2CCc2ccccc21)c1ccc(-c2ccc(C=C3c4ccccc4CCc4ccccc43)cc2)cc1
- emission maximum (in C1CCOC1): 394 nm

SMILES: CCCc1ccc(C#Cc2cc(C#Cc3ccc(N(C)C)cc3)c3ccc4c(C#Cc5ccc(N(C)C)cc5)cc(C#Cc5ccc(N(C)C)cc5)c5ccc2c3c54)cc1
- emission maximum (in ClCCl): 603 nm

SMILES: CN(C)c1ccc(C#Cc2ccc(-c3cc(N(C)C)c4ccccc4c3)cc2)cc1
- emission maximum (in CC#N): 497.02 nm
- emission maximum (in CCO): 472.33 nm
- emission maximum (in ClCCl): 457 nm

SMILES: Cc1ccc(N(c2ccc(C)cc2)c2ccc(Oc3nnc(Cl)nn3)cc2)cc1
- emission maximum (in ClCCl): 550 nm

SMILES: F[B-]1(F)n2c(c(Sc3ccccc3)c3c2-c2ccccc2CC3)C=C2C(Sc3ccccc3)=C3CCc4ccccc4C3=[N+]21
- emission maximum (in CC#N): 661 nm

SMILES: CC[N+]1(CC)CN2C(=N1)C(C(=O)O)=Cc1c(OC)ccc(OC)c12
- emission maximum (in O): 515 nm

SMILES: F[B-]1(F)n2c(cc3c4ccccc4c4ccccc4c32)-c2ccc3ccccc3[n+]21
- emission maximum (in ClCCl): 585 nm

SMILES: O=P1(c2ccccc2)c2cccc3c4c5ccccc5c5ccccc5c4c4ccc1n4c23 (centres undefined)
- emission maximum (in ClCCl): 490 nm

SMILES: CN(C)c1ccc(-c2ccc(-c3ccc(N(C)C)cc3)c3nc(-c4ccccc4)c(-c4ccccc4)nc23)cc1
- emission maximum (in C1CCOC1): 601 nm
- emission maximum (in CC#N): 646 nm
- emission maximum (in CCCCCC): 538 nm
- emission maximum (in CN(C)C=O): 648 nm
- emission maximum (in Cc1ccccc1): 577 nm
- emission maximum (in ClC(Cl)Cl): 597 nm

SMILES: CCCCn1c(-c2ccc(-c3nnc(-c4ccc(-c5nc6c7ccccc7c7ccccc7c6n5CCCC)cc4)o3)cc2)nc2c3ccccc3c3ccccc3c21
- emission maximum (in ClCCl): 451 nm

SMILES: F[B-]1(F)n2c(-c3ccccc3)cc(-c3ccccc3)c2N=C2C(c3ccccc3)=CC(c3ccccc3)=[N+]21
- emission maximum (in CC#N): 673 nm
- emission maximum (in ClC(Cl)Cl): 672 nm

SMILES: Cc1c(COC(=O)c2ccccc2Br)n2c(OCC(=O)c3ccccc3Br)c(C)c(=O)n2c1=O
- emission maximum (in CCO): 458 nm

SMILES: CCCCCCCCCCCCOc1cc2c3c(ccc4c5c(N6CCOCC6)cc6c7c(ccc(c1c34)c75)C(=O)N(C1CCCCC1)C6=O)C(=O)N(C1CCCCC1)C2=O
- emission maximum (in ClC(Cl)Cl): 697 nm

SMILES: CCOC(=O)/N=c1/oc2cc(N(CC)CC)ccc2cc1C#N
- emission maximum (in ClCCl): 486 nm

SMILES: COc1ccc(/C=C/c2ncc(-c3ccccc3)o2)cc1OC
- emission maximum (in ClCCl): 420 nm

SMILES: CC(C)(C)NC(=O)c1ccc(-c2ccc(N3c4ccccc4Oc4ccccc43)cc2)c2ccc3c4ccc(F)cc4c4cc(F)ccc4c3c12
- emission maximum (in ClCCl): 573 nm

SMILES: CCc1ccc(/C=N/c2cc(C(C)C)c(O)cc2C)cc1
- emission maximum (in C1CCCCC1): 406 nm
- emission maximum (in C1CCOC1): 412 nm
- emission maximum (in C1COCCO1): 410 nm
- emission maximum (in CC#N): 421 nm
- emission maximum (in CC(C)(C)O): 414 nm
- emission maximum (in CC(C)O): 418 nm
- emission maximum (in CCCCCC): 402 nm
- emission maximum (in CCCCO): 420 nm
- emission maximum (in CCO): 422 nm
- emission maximum (in CCOC(C)=O): 412 nm
- emission maximum (in CN(C)C=O): 423 nm
- emission maximum (in CO): 428 nm
- emission maximum (in CS(C)=O): 431 nm
- emission maximum (in ClC(Cl)Cl): 415 nm
- emission maximum (in ClCCl): 420 nm
- emission maximum (in O): 444 nm
- emission maximum (in OCCO): 429 nm

SMILES: CN(C)c1ccc(C(=O)c2ccccc2)cc1
- emission maximum (in C1CCCCC1): 462 nm
- emission maximum (in CC#N): 602 nm
- emission maximum (in CO): 480 nm
- emission maximum (in CS(C)=O): 609 nm
- emission maximum (in c1ccccc1): 497 nm

SMILES: O=C(O)c1ccccc1Nc1cccc(C(F)(F)F)c1
- emission maximum (in C1CCCCC1): 406 nm
- emission maximum (in C1CCOC1): 408 nm
- emission maximum (in C1COCCO1): 410 nm
- emission maximum (in CC#N): 426 nm
- emission maximum (in CCOC(C)=O): 410 nm
- emission maximum (in CN(C)C=O): 425 nm
- emission maximum (in CO): 428 nm
- emission maximum (in ClC(Cl)Cl): 426 nm

SMILES: Nc1ccc(C#Cc2ccc3ccc4ccc(C#Cc5ccc(N)cc5)c5ccc2c3c45)cc1
- emission maximum (in C1COCCO1): 476 nm
- emission maximum (in CC(C)=O): 538 nm
- emission maximum (in CCCCCC): 444 nm
- emission maximum (in CCCCCCO): 534 nm
- emission maximum (in CCO): 540 nm
- emission maximum (in CCOC(C)=O): 506 nm
- emission maximum (in CO): 557 nm
- emission maximum (in Cc1ccccc1): 463 nm
- emission maximum (in ClCCl): 492 nm

SMILES: CCn1c2ccccc2c2cc(C#Cc3cc(C#Cc4ccc5c(c4)c4ccccc4n5CC)nc(OC)n3)ccc21
- emission maximum (in C1CCOC1): 445 nm
- emission maximum (in CCOC(C)=O): 442 nm
- emission maximum (in CN(C)C=O): 499 nm
- emission maximum (in Cc1ccccc1): 411 nm
- emission maximum (in ClCCl): 467 nm

SMILES: COc1ccc2cc(C#N)c(=N)oc2c1
- emission maximum (in ClCCl): 387 nm

SMILES: c1ccc(C2c3ccccc3-c3ccccc32)cc1
- emission maximum (in CCO): 305 nm

SMILES: Brc1ccc(-c2pc3ccccc3s2)cc1 (centres undefined)
- emission maximum (in CC#N): 439 nm

SMILES: F[B-]1(F)n2c(ccc2-c2nc3ccccc3s2)C(c2ccccc2)=C2C=CC(c3nc4ccccc4s3)=[N+]21
- emission maximum (in ClC(Cl)Cl): 643 nm

SMILES: CC(C)(C)c1ccc(-c2cc(-c3ccc(-c4cc(-c5ccc(C(C)(C)C)cc5)c(C(=O)NC5CCCCC5)s4)s3)sc2C(=O)NC2CCCCC2)cc1
- emission maximum (in ClCCl): 448 nm

SMILES: COc1ccc(C2=C3C(C)=CC(C)=[N+]3[B-](F)(F)n3c(/C=C/c4ccc(N(C)C)cc4)cc(C)c32)cc1
- emission maximum (in C1CCCCC1): 612 nm
- emission maximum (in C1CCOC1): 664 nm
- emission maximum (in C1COCCO1): 648 nm
- emission maximum (in CC1CCCCC1): 612 nm
- emission maximum (in CC#N): 717 nm
- emission maximum (in CC(C)=O): 695 nm
- emission maximum (in CC(C)OC(C)C): 629 nm
- emission maximum (in CCC#N): 710 nm
- emission maximum (in CCCC#N): 695 nm
- emission maximum (in CCCCO): 678 nm
- emission maximum (in CCCCOCCCC): 627 nm
- emission maximum (in CCOC(C)=O): 665 nm
- emission maximum (in CCOCC): 641 nm
- emission maximum (in CN(C)C=O): 718 nm
- emission maximum (in CO): 696 nm
- emission maximum (in CS(C)=O): 737 nm
- emission maximum (in Cc1ccccc1): 640 nm
- emission maximum (in ClC(Cl)Cl): 656 nm

SMILES: CCCCC(CC)Cn1c2cc(C#N)ccc2c2ccc(C#Cc3cc(C#Cc4ccc5c6ccc(C#N)cc6n(CC(CC)CCCC)c5c4)c4ccc5c(C#Cc6ccc7c8ccc(C#N)cc8n(CC(CC)CCCC)c7c6)cc(C#Cc6ccc7c8ccc(C#N)cc8n(CC(CC)CCCC)c7c6)c6ccc3c4c65)cc21 (centres undefined)
- emission maximum (in ClCCl): 486 nm

SMILES: CCNc1ccc(NCC)c2c1C(=O)c1ccccc1C2=O
- emission maximum (in C1CCCCC1): 670 nm
- emission maximum (in C1COCCO1): 684 nm
- emission maximum (in CC(C)=O): 671 nm
- emission maximum (in CCCCCCCCCCO): 672 nm
- emission maximum (in CCCCCCCO): 666 nm
- emission maximum (in CCCCCCO): 663 nm
- emission maximum (in CCCCO): 670 nm
- emission maximum (in CCO): 672 nm
- emission maximum (in CN(C)C=O): 680 nm
- emission maximum (in CO): 669 nm
- emission maximum (in CS(C)=O): 672 nm
- emission maximum (in ClC(Cl)(Cl)Cl): 679 nm
- emission maximum (in c1ccccc1): 670 nm

SMILES: O=C(Nc1ccccc1[N+](=O)[O-])c1ccc2oc(-c3cc4ccccc4oc3=O)nc2c1
- emission maximum (in ClCCl): 443 nm

SMILES: CCCN1/C(=C/C=C(/C=C/C2=[N+](CCC)c3ccccc3C2(C)C)c2ccc([N+](=O)[O-])cc2)C(C)(C)c2ccccc21
- emission maximum (in CO): 656 nm
- emission maximum (in CS(C)=O): 664 nm
- emission maximum (in O): 663 nm

SMILES: CN(C)c1ccc(C2=CC3=C(c4ccc([N+](=O)[O-])cc4)[C@H]4c5ccccc5[C@]3(S2)c2ccccc24)cc1
- emission maximum (in ClCCl): 625 nm

SMILES: COC(=O)/C=C/c1sc(-c2ccc(N(C)C)s2)c(-c2cn(C)c3ccccc23)c1O
- emission maximum (in CC#N): 663 nm
